Measurements as given in US20240316187A1, “PROTEINS IDENTIFIED FROM BARN DUST EXTRACT FOR THE PREVENTION AND TREATMENT OF DISEASES” (Helmholtz Zentrum München - Deutsches Forschungszentrum für …, priority 2021, published 2024).
“Also recorded” adds a separate entry of the source. Blank lines part the entries; values can stand above or below the molecule they belong to.

Tests used:
15N-bOBP = molecular target: T1, 15N-bOBP (Bos taurus, UniProt P07435); test: NMR binding studies (1H,15N-HSQC titration); details: 200 μM 15N-bOBP alone or in presence of 1 mM and 2 mM fatty acid, pH 6.5, 25° C.
T1 construct: 6xHis (N, cleaved yes); Thioredoxin (Trx) (N, cleaved yes); TEV cleavage site (N, cleaved yes); made in house; host or cells: E. coli BL21 (M9 minimal medium for 15N labelling)
T1 sequence (P07435 with tags, fused parts or gaps): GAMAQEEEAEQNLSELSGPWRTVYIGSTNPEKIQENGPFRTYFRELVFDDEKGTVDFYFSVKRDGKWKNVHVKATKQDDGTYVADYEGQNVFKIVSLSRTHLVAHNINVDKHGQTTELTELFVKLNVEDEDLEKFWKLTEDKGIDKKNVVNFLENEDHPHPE
Procedure: NMR binding studies. Overlay of ^1H, […] spectra of ^15N-bOBP alone and in presence of 5- and 10-fold excess of (E)-12-oxoheptadec-10-enoic acid. Arrow and inlet show CSP of exemplary peak. Arrows and inlets show CSP of exemplary peaks.
NMR measurements were performed in 3 mm tubes at 25° C. on a Bruker Avance III spectrometer operating at 600 MHz ^1H frequencies using H/N/C triple-resonance cryogenic probes. To confirm fatty acid binding, two-dimensional ^1H, ^15N heteronuclear single quantum correlation (HSQC) spectra were recorded of 200 μM ^15N-bOBP in 20 mM phosphate buffer pH 6.5, 50 mM NaCl, 1 mM β-mercaptoethanol and 10% (v/v) D20 alone or in presence of 1 mM and 2 mM fatty acid.

[1] = system: Balb/c mice sensitized with OVA; test: OVA allergic asthma model, intranasal application of test substance; assay type: in vivo, mouse; details: for Bronchoalveolar lavage (BAL) eosinophil numbers / AHR to increasing doses of methacholine: 12 intranasal applications d0-d26, analysis day 28; for Bronchoalveolar lavage (BAL) eosinophil numbers: FIG. 10; for AHR to increasing doses of methacholine: FlexiVent, FIG. 11
Procedure: Control mice were sham sensitized to PBS. Error bars reflect SEM. P values reflect one-way ANOVA, *: p value<0.05, **: p value<0.01; (FA: (E)-12-oxoheptadec-10-enaic acid).
Control mice were sham sensitized to PBS. Error bars reflect SEM. (FA: (E)-12-oxoheptadec-10-enaic acid).
Balb/c mice were first be sensitized with 10 μg OVA in Alum i.p. on day 0, 7 and 14. Three consecutive intranasal challenges with 100 μg OVA on day 25, 26 and 27, with analysis being undertaken on day 28, follows. From d0-d26 there were 12 consecutive intranasal applications of test substance. Asthma pathogenesis was assessed using methacholine lung function challenge to examine AHR as undertaken in allergic asthma patients. Furthermore, pathological manifestations such as eosinophilia was assessed. • Sensitzation: 10 μg valbumin (OVA Grade VI, Sigma, Stainheim, D) dissolved in 100 μl PBS on days 0, 7 and 14 of the assay protocol together with 100 μl (1 mg) of the adjuvant aluminium hydroxyde (Al(OH)3) (Inject Alum, Pierce, USA). • Challenge: OVA Grade V in 100 μg/mouse in 25 μl (concentration: 4 mg/ml)
Eosiniphilnumbers in the Bronchoalveolar lavage (BAL) are shown in FIG. 10. • Airway Hyperresponsivenes (AHR): Dynamic resistance and compliance (in response to increasing doses of MCh) FlexiVent results are shown in FIG. 11.

16HBE cells = test: TEER assay, epithelial barrier function; assay type: cell-based; details: 20 μg/ml, 24 hours after treatment; compared with cow SDE at 200 μg/ml; FIG. 6
Procedure: TEER Assay: 16HBE: untreated cells; Farm dust (Hec 20)=Cow shed dust extract>10 kDa autoclaved, 200 μg/ml; Bosd2+FA=His-Trx-Bos d2+(E)-12-oxoheptadec-10-enaic acid, 20 μg/ml; OBP+FA=bOBP+(E)-12-oxoheptadec-10-enaic acid, 20 μg/ml.
To examine the effect of the Lipoproteins Bos d2+FA and OBP+FA on the epithelial barrier function as measured by transepithelial electrical resistance (TEER). 16HBE (100.000 (1×10*5)) cells were seeded on transwell inserts in […] medium (MEM with Earle's salt, 10% FBS (during cultivation only, during assay no FBS), 1% L-Glutamine, 1% Penicillin/Streptomycin). After 24 hours of culture, cells were treated with the indicated compounds, and 24 hours after treatment, TEER values were determined using an EVOM2 epithelial voltohmmeter (World Precision Instruments). Cow SDE was used at 200 μg/ml, all other compounds were used at 20 μg/ml.

human TLR2 = molecular target: T2, human TLR2 (Homo sapiens, UniProt O60603); test: Activation of TLR-2, NFkB induction in HEK-Blue-hTLR2 cells (SEAP reporter); assay type: cell-based; details: human TLR2 transfected HEK cells; positive control Pam3CSK4; FIG. 5
T2 construct: host or cells: HEK293 (HEK-Blue-hTLR2)
Source text: NKfB induction in HEK-hTLR2. Dotted line: PBS/DMSO (negative control); Pam3CSK4=positive control; Farm dust (Hec 20)=Cow shed dust extract>10 kDa autoclaved; Bosd2+FA=His-Trx-Bos d2+€-12-oxoheptadec-10-enaic acid; OBP+FA=bOBP+€-12-oxoheptadec-10-enaic acid; OBP=bOBP; FA=€-12-oxoheptadec-10-enaic acid.
HEK-Blue™-hTLR2 cells (InvivoGen) are obtained by co-transfection of the human TLR2 and SEAP (secreted embryonic alkaline phosphatase) genes into HEK293 cells. The SEAP reporter gene is placed under the control of the IFN-β minimal promoter fused to five NF-κB and AP-1-binding sites. Additionally, the CD14 co-receptor gene was transfected into these cells to enhance the TLR2 response. Stimulation with a TLR2 ligand activates NF-κB and AP-1, which in turn induce the production of SEAP. Levels of SEAP are determined with HEK-Blue™ Detection, a cell culture medium that allows for real-time detection of SEAP.

[2] = system: OVA pulsed BMDCs cocultured with OT-II CD4 T cells; test: DC/T-cell interaction assay; assay type: cell-based, mouse; details: pre-treatment of BMDCs (two treatments), LPS stimulation, FIG. 8
Procedure: Effect of lipoprotein candidates on DC T-cell interaction: OVA pulsed BMDCs enhanced OT-II CD4 T cell number (Medium), which was prevented by pre-treatment of BMDCs with, Bos d2+FA and OPB+FA. CD4+ count: For each sample 10400 counting beads were added to tube and 5000 beads were counted for recording. CD4+ count indicates the amount of CD4+ cells contained in the volume needed to count 5000 beads. (FA: (E)-12-oxoheptadec-10-enaic acid).
DCs are professional antigen presenting cells crucial for the priming of CD4 T cells in asthma and allergy. The mouse primary bone marrow derived DCs (BMDCs) were utilized to evaluate the ability of the test substances to modulate their activation. DC activation is monitored their ability to regulate the differentiation and proliferation of OVA-specific CD4 T cells (OT-II) following DC pulsing with the OVA peptide.
For this assay, bone marrow derived DCs are isolated from C57B16 mice and put into culture. […]
Isolate bone marrow from wild-type C57BL/6 mouse and seed cells in 10 ml Petri dishes in 10 ml volume (2 million cells/dish) containing 20 ng/ml rmGM-CSF. […] Cells were then collected and counted with the help of counting beads and seeded in V bottom 96 well plates (10000 cells/well) and pulsed with OVA peptide (323-339) for 3 hours. […] 20000 stained T Cells were cocultured with DCs for […], and T Cells were then analyzed with flow cytometry.

T2 sequence (O60603 21-784): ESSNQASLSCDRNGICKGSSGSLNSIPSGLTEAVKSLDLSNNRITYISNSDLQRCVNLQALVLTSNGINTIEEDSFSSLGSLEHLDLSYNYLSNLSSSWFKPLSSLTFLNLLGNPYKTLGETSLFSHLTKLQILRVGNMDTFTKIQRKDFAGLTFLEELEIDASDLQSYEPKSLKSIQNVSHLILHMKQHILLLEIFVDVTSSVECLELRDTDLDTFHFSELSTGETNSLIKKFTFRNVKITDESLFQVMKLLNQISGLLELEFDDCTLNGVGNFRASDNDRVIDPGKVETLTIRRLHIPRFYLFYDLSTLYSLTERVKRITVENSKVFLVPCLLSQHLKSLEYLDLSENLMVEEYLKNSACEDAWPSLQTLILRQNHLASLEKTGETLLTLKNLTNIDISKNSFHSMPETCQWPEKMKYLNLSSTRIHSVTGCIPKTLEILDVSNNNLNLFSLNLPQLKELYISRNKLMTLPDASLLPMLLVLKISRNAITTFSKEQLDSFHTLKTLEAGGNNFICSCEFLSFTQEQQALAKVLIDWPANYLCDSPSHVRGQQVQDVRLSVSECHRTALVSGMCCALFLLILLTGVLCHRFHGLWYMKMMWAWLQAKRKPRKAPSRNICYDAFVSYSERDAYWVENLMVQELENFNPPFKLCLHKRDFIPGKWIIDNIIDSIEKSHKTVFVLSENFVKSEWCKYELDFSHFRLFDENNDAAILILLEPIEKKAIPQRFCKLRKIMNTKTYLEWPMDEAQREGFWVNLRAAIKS

Molecule: CCCCCC(=O)/C=C/CCCCCCCCC(=O)O [FA, (E)-12-oxoheptadec-10-enoic acid]
- chemical shift perturbations (CSP) in 1H,15N-HSQC spectra (15N-bOBP): chemical shift perturbations (CSP) which is indicative for ligand binding
- Bronchoalveolar lavage (BAL) eosinophil numbers [1]: does not have an effect
- AHR to increasing doses of methacholine [1]: an effect on AHR

- NFkB induction in HEK-hTLR2 (TLR2 activation) (human TLR2): even stronger effect than the cow SDE
Molecule: OBP+FA: Lipoprotein complex of bOBP incubated with 5 fold molar excess of (E)-12-oxoheptadec-10-enoic acid, dialysed
- transepithelial electrical resistance (TEER) (16HBE cells): stronger effect, at much lower concentration
- Bronchoalveolar lavage (BAL) eosinophil numbers [1]: prevented allergic asthma
- AHR to increasing doses of methacholine [1]: significant effect; also recorded: prevented allergic asthma
- AHR effect compared with OBP alone ([1]; same model as E7): slightly better than for OBP alone
- OT-II CD4 T cell number (CD4+ count) [2]: prevented

- NFkB induction in HEK-hTLR2 (TLR2 activation) (human TLR2): even stronger effect than the cow SDE
Molecule: Bos d2+FA: Lipoprotein complex of His-Trx-Bos d2 with (E)-12-oxoheptadec-10-enoic acid
- transepithelial electrical resistance (TEER) (16HBE cells): stronger effect, at much lower concentration
- OT-II CD4 T cell number (CD4+ count) [2]: prevented

B1: OBP: Recombinant bovine odorant-binding protein, lipocalin family, without ligand (protein, listed as Bos taurus)
chain: AQEEEAEQNLSELSGPWRTVYIGSTNPEKIQENGPFRTYFRELVFDDEKGTVDFYFSVKRDGKWKNVHVKATKQDDGTYVADYEGQNVFKIVSLSRTHLVAHNINVDKHGQTTELTELFVKLNVEDEDLEKFWKLTEDKGIDKKNVVNFLENEDHPHPE
- Bronchoalveolar lavage (BAL) eosinophil numbers [1]: prevented allergic asthma
- AHR to increasing doses of methacholine [1]: significant effect; also recorded: prevented allergic asthma
- NFkB induction in HEK-hTLR2 (TLR2 activation) (human TLR2): had an effect as well, but higher concentrations are needed
